In test [1] the test system is Human Peripheral Blood Mononuclear Cells (PBMC), mature IL-1β. Nature of the test: PBMC cell assay: IL-1β assay with human peripheral blood mononuclear cells. The format is cell-based. As to conditions: LPS-stimulated human PBMC, mature IL-1β in supernatant by ELISA. An excerpt:
IL-1β Assay with a Mixed Population of Human Peripheral Blood Mononuclear Cells (PBMC) or Enriched Adherent Mononuclear Cells
Processing of pre-IL-1β by ICE can be measured in cell culture using a variety of cell sources. Human PBMC obtained from healthy donors provides a mixed population of lymphocyte subtypes and mononuclear cells that produce a spectrum of interleukins and cytokines in response to many classes of physiological stimulators. Adherent mononuclear cells from PBMC provides an enriched source of normal monocytes for selective studies of cytokine production by activated cells.
An initial dilution series of test compound in DMSO or ethanol is prepared, with a subsequent dilution into RPMI-10% FBS media (containing 2 mM L-glutamine, 10 mM HEPES, 50 U and 50 ug/ml pen/strep) respectively to yield drugs at 4× the final test concentration containing 0.4% DMSO or 0.4% ethanol. The final concentration of DMSO is 0.1% for all drug dilutions. A concentration titration which brackets the apparent Ki for a test compound determined in an ICE inhibition assay is generally used for the primary compound screen.
Generally 5-6 compound dilutions are tested and the cellular component of the assay is performed in duplicate, with duplicate ELISA determinations on each cell culture supernatant.
Buffy coat cells isolated from one pint human blood (yielding 40-45 ml final volume plasma plus cells) are diluted with media to 80 ml and LeukoPREP separation tubes (Becton Dickinson) are each overlaid with 10 ml of cell suspension. After 15 min centrifugation at 1500-1800×g, the plasma/media layer is aspirated and then the mononuclear cell layer is collected with a Pasteur pipette and transferred to a 15 ml conical centrifuge tube (Corning). Media is added to bring the volume to 15 ml, gently mix the cells by inversion and centrifuge at 300×g for 15 min. The PBMC pellet is resuspended in a small volume of media, the cells are counted and adjusted to 6×10^6 cells/ml.
For the cellular assay, 1.0 ml of the cell suspension is added to each well of a 24-well flat bottom tissue culture plate (Corning), 0.5 ml test compound dilution and 0.5 ml LPS solution (Sigma #L-3012; 20 ng/ml solution prepared in complete RPMI media; final LPS concentration 5 ng/ml). The 0.5 ml additions of test compound and LPS are usually sufficient to mix the contents of the wells. Three control mixtures are run per experiment, with either LPS alone, solvent vehicle control, and/or additional media to adjust the final culture volume to 2.0 ml. The cell cultures are incubated for 16-18 hr at 37° C. in the presence of 5% CO2.
At the end of the incubation period, cells are harvested and transferred to 15 ml conical centrifuge tubes. After centrifugation for 10 min at 200×g, supernatants are harvested and transferred to 1.5 ml Eppendorf tubes. It may be noted that the cell pellet may be utilized for a biochemical evaluation of pre-IL-1β and/or mature IL-1β content in cytosol extracts by Western blotting or ELISA with pre-IL-1β specific antisera.
PBMC are isolated and prepared as described above. Media (1.0 ml) is first added to wells followed by 0.5 ml of the PBMC suspension. After a one hour incubation, plates are gently shaken and nonadherent cells aspirated from each well. Wells are then gently washed three times with 1.0 ml of media and final resuspended in 1.0 ml media. The enrichment for adherent cells generally yields 2.5-3.0×10^5 cells per well. The addition of test compounds, LPS, cell incubation conditions and processing of supernatants proceeds as described above.
Quantikine kits (R&D Systems) may be used for the measurement of mature IL-1β. Assays are performed according to the manufacturer's directions. Mature IL-1β levels of about 1-3 ng/ml in both PBMC and adherent mononuclear cell positive controls are observed. […]
For orientation: In an ELISA, binding on a coated surface is turned into a signal by an enzyme label.

In another test the target is T1, Caspase-1 (Homo sapiens, UniProt P29466).
T1 sequence (P29466 120-297 limits assumed): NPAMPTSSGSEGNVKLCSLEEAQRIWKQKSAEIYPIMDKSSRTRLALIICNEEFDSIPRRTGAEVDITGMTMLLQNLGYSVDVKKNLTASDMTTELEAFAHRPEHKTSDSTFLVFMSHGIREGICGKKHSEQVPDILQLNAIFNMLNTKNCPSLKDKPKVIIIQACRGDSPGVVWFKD
T1 sequence (P29466 317-404 limits assumed): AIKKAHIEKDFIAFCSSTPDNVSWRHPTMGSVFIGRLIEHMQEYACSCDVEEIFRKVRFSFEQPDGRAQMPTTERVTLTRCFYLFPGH
As to the kind of experiment: Caspase-1 enzyme inhibition (Ki). The class given is biochemical. A digest of the protocol: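 Ki obtained by fitting rate versus inhibitor concentration to the Morrison tight-binding equation for competitive inhibitors, with pNA release read at 405 nm at 37 °C. Substrate Suc-YVAD-pNA (80 μM final) added after 15 min enzyme–inhibitor preincubation in Tris pH 7.5 buffer with DTT and CHAPS.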

Test [2] concerns Human whole blood, IL-1β production. As to the kind of experiment: Whole blood assay for IL-1β production. To be noted: LPS-stimulated whole blood, IL-1β by ELISA. The format is cell-based. On the procedure: The whole blood assay is a simple method for measuring the production of IL-1β (or other cytokines) and the activity of potential inhibitors. The complexity of this assay system, with its full complement of lymphoid and inflammatory cell types, spectrum of plasma proteins and red blood cells is an ideal in vitro representation of human in vivo physiologic conditions.
Set incubator or water bath at 30° C. Aliquot 0.25 ml of blood into 1.5 ml eppendorf tubes. Note: be sure to invert the whole blood sample tubes after every two aliquots. Differences in replicates may result if the cells sediment and are not uniformly suspended. Use of a positive displacement pipette will also minimize differences between replicate aliquots.
Prepare drug dilutions in sterile pyrogen-free saline by serial dilution. A dilution series which brackets the apparent Ki for a test compound determined in an ICE inhibition assay is generally used for the primary compound screen. For extremely hydrophobic compounds, prepare compound dilutions in fresh plasma obtained from the same blood donor or in PBS-containing 5% DMSO to enhance solubility.
Add 25 μl test compound dilution or vehicle control and gently mix the sample. Then add 5.0 μl LPS solution (250 ng/ml stocked prepared fresh: 5.0 ng/ml final concentration LPS), and mix again. Incubate the tubes at […] in a water bath for 16-18 hr with occasional mixing. Alternatively, the tubes can be placed in a rotator set at 4 rpm for the same incubation period. This assay should be set up in duplicate or triplicate with the following controls: negative control—no LPS; positive control—no test inhibitor; vehicle control—the highest concentration of DMSO or compound solvent used in the experiment. Additional saline is added to all control tubes to normalize volumes for both control and experimental whole blood test samples.
After the incubation period, whole blood samples are centrifuged for 10 minutes at ^˜2000 rpm in the microfuge, plasma is transferred to a fresh microfuge tube and centrifuged at 1000×g to pellet residual platelets if necessary. Plasma samples may be stored frozen at −70° C. prior to assay for cytokine levels by ELISA.
R & D Systems (614 McKinley Place N.E. Minneapolis, Minn. 55413) Quantikine kits may be used for measurement of IL-1β and TNF-α. The assays are performed according to the manufacture's directions. IL-1β levels of ^˜1-5 ng/ml in positive controls among a range of individuals may be observed. A 1:200 dilution of plasma for all samples is usually sufficient for experiments for ELISA results to fall on the linear range of the ELISA standard curves. It may be necessary to optimize standard dilutions if you observe differences in the whole blood assay. Nerad, J. L. et al., J. Leukocyte Biol., 52, pp. 687-692 (1992).

Setting [3] is: substrate Suc-YVAD-pNA 80 μM, 37° C., pH 7.5.

Where two headings read alike, the source gives them in different places. Where a SMILES comes first, the peptide text is derived from it. [ ]: non-standard residue; d: D form. The star is where a group is joined. 4Abz = Nc1ccc(C(=O)O)cc1; Bz = O=C(c1ccccc1)* Bounds are passed on as bounds.

As to `CC(=O)Nc1ccc(C(=O)N[C@H](C(=O)N2CCC[C@H]2C(=O)N[C@H](C=O)CC(=O)O)C(C)C)cc1` [Example 5a] (Ac-[4Abz]VPD-aldehyde), the results for the IC50 in test [1] and in test [2] were above 2000 nM and below 2500 nM, respectively. For the same compound, the figures for the Ki at Caspase-1 and on Caspase-1 (setting [3]) were 10 to 1000 nM and below 10 nM, respectively.
On the same counts, the results for `COc1ccc(C(=O)N[C@H](C(=O)N2CCC[C@H]2C(=O)N[C@H](C=O)CC(=O)O)C(C)C)cc1OCc1ccccc1` [Example 5aa] are 500 to 1000 nM, below 2500 nM, below 10 nM and below 10 nM.
The matching figures for `CC(C)[C@H](NC(=O)Cc1ccccc1OCc1ccccc1)C(=O)N1CCC[C@H]1C(=O)N[C@H](C=O)CC(=O)O` [Example 5ab]: 500 to 1000 nM, 2500 to 7500 nM, 10 to 1000 nM and 10 to 1000 nM.
As to `COc1c(C)cc(C(=O)N[C@H](C(=O)N2CCC[C@H]2C(=O)N[C@H](C=O)CC(=O)O)C(C)C)cc1C` [Example 5ac], the half-maximal inhibitory concentration (IC50) in test [1] is below 500 nM; in test [2], below 2500 nM. Moreover, the Ki on Caspase-1 and on Caspase-1 (setting [3]) was below 10 nM in each case.
With `CC(C)[C@H](NC(=O)c1ccc2ncccc2c1)C(=O)N1CCC[C@H]1C(=O)N[C@H](C=O)CC(=O)O` [Example 5ad], the IC50 in test [1] is below 500 nM; in test [2] it was below 2500 nM. In addition, the Ki at Caspase-1 and at Caspase-1 (setting [3]) was below 10 nM in each case.
Turning to `COc1ccc2cc([C@H](C)C(=O)N[C@H](C(=O)N3CCC[C@H]3C(=O)N[C@H](C=O)CC(=O)O)C(C)C)ccc2c1` [Example 5ag], the IC50 in test [1] is 500 to 1000 nM; in test [2] it was 2500 to 7500 nM. Also, the Ki on Caspase-1 and at Caspase-1 (setting [3]) was below 10 nM each time.
Take `CC(C)[C@H](NC(=O)c1ccc2c(c1)S(=O)(=O)c1ccccc1C2=O)C(=O)N1CCC[C@H]1C(=O)N[C@H](C=O)CC(=O)O` [Example 5ai]: the IC50 in test [1] is below 500 nM; in test [2] it was above 7500 nM. The Ki on Caspase-1 and on Caspase-1 (setting [3]) was below 10 nM throughout.
Take `CC(C(=O)N[C@H](C(=O)N1CCC[C@H]1C(=O)N[C@H](C=O)CC(=O)O)C(C)C)c1ccc(C(=O)c2cccs2)cc1` (some centres unmarked) [Example 5aj]: the figures for the IC50 in test [1] and in test [2] were 500 to 1000 nM and above 7500 nM, respectively. In addition, the inhibition constant (Ki) at Caspase-1 and at Caspase-1 (setting [3]) was 10 to 1000 nM in each case.
Take `COc1cc(CC(=O)N[C@H](C(=O)N2CCC[C@H]2C(=O)N[C@H](C=O)CC(=O)O)C(C)C)ccc1OCc1ccccc1` [Example 5ak]: the IC50 is 500 to 1000 nM in test [1] and above 7500 nM in test [2]. For the same compound, the Ki at Caspase-1 and at Caspase-1 (setting [3]) was 10 to 1000 nM each time.
For `CC(C)[C@H](NC(=O)c1cccc(Oc2ccccc2)c1)C(=O)N1CCC[C@H]1C(=O)N[C@H](C=O)CC(=O)O` [Example 5ay], the figures for the concentration for half-maximal inhibition (IC50) in test [1] and in test [2] were 500 to 1000 nM and 2500 to 7500 nM, respectively. Moreover, the Ki on Caspase-1 (setting [3]) was below 10 nM.
In the case of `CC(C)[C@H](NC(=O)c1cccc(C(=O)c2ccccc2)c1)C(=O)N1CCC[C@H]1C(=O)N[C@H](C=O)CC(=O)O` [Example 5az], the IC50 in test [1] is 500 to 1000 nM; in test [2], below 2500 nM. The compound also showed a Ki at Caspase-1 (setting [3]) below 10 nM.
`CC(C)[C@H](NC(=O)c1cc2ccccc2[nH]1)C(=O)N1CCC[C@H]1C(=O)N[C@H](C=O)CC(=O)O` [Example 5b]: the half-inhibitory concentration (IC50) is 500 to 1000 nM in test [1] and below 2500 nM in test [2]. Also, the Ki at Caspase-1 (setting [3]) was below 10 nM.
On to `CC(C)[C@H](NC(=O)c1ccc2c(c1)C(=O)c1ccccc1-2)C(=O)N1CCC[C@H]1C(=O)N[C@H](C=O)CC(=O)O` [Example 5bb], for which the IC50 lay in the range of 500 to 1000 nM in test [1] and 2500 to 7500 nM in test [2]. Moreover, at Caspase-1 (setting [3]), the inhibition constant (Ki) is below 10 nM.
For the compound `CC(C)[C@H](NC(=O)c1cccc2ccccc12)C(=O)N1CCC[C@H]1C(=O)N[C@H](C=O)CC(=O)O` [Example 5d], the IC50 in test [1] was 500 to 1000 nM; in test [2], 2500 to 7500 nM. Further, the Ki at Caspase-1 (setting [3]) is below 10 nM.
On the same counts, the results for `CC(C)[C@H](NC(=O)c1ccccc1)C(=O)N1CCC[C@H]1C(=O)N[C@H](C=O)CC(=O)O` [Example 5e] (Bz-Val-Pro-Asp-aldehyde) are 500 to 1000 nM, below 2500 nM and 10 to 1000 nM.
`CC(C)[C@H](NC(=O)c1ccc(O)cc1)C(=O)N1CCC[C@H]1C(=O)N[C@H](C=O)CC(=O)O` [Example 5f]: the IC50 in test [1] lay within 1000 to 2000 nM; in test [2], 2500 to 7500 nM. On Caspase-1 (setting [3]), this compound came in with a Ki of 10 to 1000 nM.
Turning to `CC(C)[C@H](NC(=O)c1cccc2c1-c1ccccc1C2)C(=O)N1CCC[C@H]1C(=O)N[C@H](C=O)CC(=O)O` [Example 5i], the IC50 is 1000 to 2000 nM in test [1] and above 7500 nM in test [2]. Besides, the Ki on Caspase-1 and on Caspase-1 (setting [3]) was below 10 nM each time.
Turning to `CC(C)[C@H](NC(=O)c1cccc2c1Cc1ccccc1-2)C(=O)N1CCC[C@H]1C(=O)N[C@H](C=O)CC(=O)O` [Example 5j], the IC50 was above 2000 nM in test [1] and above 7500 nM in test [2]. The Ki on Caspase-1 and at Caspase-1 (setting [3]) was below 10 nM throughout.

For orientation: IC50 means the concentration that gives 50% inhibition. For orientation: Ki means a measure of affinity in units of concentration, obtained from inhibition or displacement. Low values mean higher affinity, high ones lower affinity.

The values above are taken from patent publication US20030232986A1, “Inhibitors of caspases” (Vertex Pharmaceuticals Incorporated, priority 1998, published 2003).
